We go through 11 compounds from patent publication US20140235587A1, “SUBSTITUTED PYRAZOLES AS SPHINGOSINE RECEPTOR MODULATORS” (Allergan, Inc., priority 2013, published 2014).

The structures appear in SMILES notation.

T1 sequence (P21453 whole entry): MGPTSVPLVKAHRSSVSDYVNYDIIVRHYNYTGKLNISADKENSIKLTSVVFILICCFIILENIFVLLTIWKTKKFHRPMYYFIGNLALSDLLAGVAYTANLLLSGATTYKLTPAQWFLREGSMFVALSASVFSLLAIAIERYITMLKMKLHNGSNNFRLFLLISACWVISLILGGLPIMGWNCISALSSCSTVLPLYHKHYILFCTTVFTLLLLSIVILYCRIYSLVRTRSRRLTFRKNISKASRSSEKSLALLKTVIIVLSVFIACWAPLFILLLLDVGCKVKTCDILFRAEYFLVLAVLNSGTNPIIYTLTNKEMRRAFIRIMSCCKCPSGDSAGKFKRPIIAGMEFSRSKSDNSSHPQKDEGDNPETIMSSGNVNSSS

The experiment concerns the target T1, human S1P1 receptor (Homo sapiens, UniProt P21453).
T1 construct: expressed in transfected cells; membranes used
Kind of experiment: GTP γ35S binding assay for S1P1 activity. Type of experiment: biochemical. The following applies: membranes of cells stably expressing S1P1; test compounds 0.08 to 5,000 nM; 30 min at 25° C.; read-out: S1P1 EC50 (Activity potency: S1P1 receptor from GTP γ35S). As to the method: Compounds were tested for S1P1 activity using the GTP γ^35S binding assay. These compounds may be assessed for their ability to activate or block activation of the human S1P1 receptor in cells stably expressing the S1P1 receptor. GTP γ^35S binding was measured in the medium containing (mM) HEPES 25, pH 7.4, MgCl2 10, NaCl 100, dithitothreitol 0.5, digitonin 0.003%, 0.2 nM GTP γ^35S, and 5 μg membrane protein in a volume of 150 μl. Test compounds were included in the concentration range from 0.08 to 5,000 nM unless indicated otherwise. Membranes were incubated with 100 μM 5′-adenylylimmidodiphosphate for 30 min, and subsequently with 10 μM GDP for 10 min on ice. Drug solutions and membrane were mixed, and then reactions were initiated by adding GTP γ^35S and continued for 30 min at 25° C. Reaction mixtures were filtered over Whatman GF/B filters under vacuum, and washed three times with 3 mL of ice-cold buffer (HEPES 25, pH7.4, MgCl2 10 and NaCl 100). Filters were dried and mixed with scintillant, and counted for ^35S activity using a β-counter. Agonist-induced GTP γ^35S binding was obtained by subtracting that in the absence of agonist. Binding data were analyzed using a non-linear regression method. In case of antagonist assay, the reaction mixture contained 10 nM S1P in the presence of test antagonist at concentrations ranging from 0.08 to 5000 nM.
`CCN1N=C(c2nc(-c3ccc(CNCCCP(=O)(O)O)cc3)no2)CC1c1ccccc1` (centres unmarked) [Compound 4, [3-({4-[5-(1-ethyl-5-phenyl-4,5-dihydro-1H-pyrazol-3-yl)-1,2,4-oxadiazol-3-yl]benzyl}amino)propyl]phosphonic acid]: the EC50 stood at 25 nM.
On to `CCN1N=C(c2nc(-c3cc(F)c(CNCCCP(=O)(O)O)c(F)c3)no2)CC1c1ccccc1` (centres unmarked) [Compound 6, [3-({4-[5-(1-ethyl-5-phenyl-4,5-dihydro-1H-pyrazol-3-yl)-1,2,4-oxadiazol-3-yl]-2,6-difluorobenzyl}amino)propyl]phosphonic acid], for which the EC50 was 5.4 nM.
Turning to `CN1N=C(c2nc(-c3ccc(CNCCCP(=O)(O)O)cc3)no2)CC1c1ccccc1` (centres unmarked) [Compound 2, [3-({4-[5-(1-methyl-5-phenyl-4,5-dihydro-1H-pyrazol-3-yl)-1,2,4-oxadiazol-3-yl]benzyl}amino)propyl]phosphonic acid], the EC50 was determined as 6.5 nM.
Regarding `CCN1N=C(c2nc(-c3ccc(CNCCC(=O)O)cc3F)no2)CC1c1ccccc1` (centres unmarked) [Compound 9, 3-({4-[5-(1-ethyl-5-phenyl-4,5-dihydro-1H-pyrazol-3-yl)-1,2,4-oxadiazol-3-yl]-3-fluorobenzyl}amino)propanoic acid], the EC50 stood at 49 nM.
Then `CCN1N=C(c2nc(-c3cc(F)c(CNCCC(=O)O)c(F)c3)no2)CC1c1ccccc1` (centres unmarked) [Compound 7, 3-({4-[5-(1-ethyl-5-phenyl-4,5-dihydro-1H-pyrazol-3-yl)-1,2,4-oxadiazol-3-yl]-2,6-difluorobenzyl}amino)propanoic acid], with 42 nM; and `CCCN1N=C(c2nc(-c3ccc(CNCCCP(=O)(O)O)cc3)no2)CC1c1ccccc1` (centres unmarked) [Compound 1, [3-({4-[5-(5-phenyl-1-propyl-4,5-dihydro-1H-pyrazol-3-yl)-1,2,4-oxadiazol-3-yl]benzyl}amino)propyl]phosphonic acid], with 18 nM; and `CCN1N=C(c2nc(-c3ccc(CNCCC(=O)O)cc3)no2)CC1c1ccccc1` (centres unmarked) [Compound 5, 3-({4-[5-(1-ethyl-5-phenyl-4,5-dihydro-1H-pyrazol-3-yl)-1,2,4-oxadiazol-3-yl]benzyl}amino)propanoic acid], with 274 nM.
Turning to `CCc1cc(-c2noc(C3=NN(CC)C(c4ccccc4)C3)n2)ccc1CNCCCP(=O)(O)O` (centres unmarked) [Compound 10, [3-({2-ethyl-4-[5-(1-ethyl-5-phenyl-4,5-dihydro-1H-pyrazol-3-yl)-1,2,4-oxadiazol-3-yl]benzyl}amino)propyl]phosphonic acid], the half-maximal effective concentration (EC50) was found to be 2.6 nM.
As to `CCCN1N=C(c2nc(-c3ccc(CNCCC(=O)O)cc3)no2)CC1c1ccccc1` (centres unmarked) [Compound 12, 3-({4-[5-(5-phenyl-1-propyl-4,5-dihydro-1H-pyrazol-3-yl)-1,2,4-oxadiazol-3-yl]benzyl}amino)propanoic acid], the EC50 was 65 nM.
On to `CCN1N=C(c2nc(-c3ccc(CNCCCP(=O)(O)O)cc3F)no2)CC1c1ccccc1` (centres unmarked) [Compound 8, [3-({4-[5-(1-ethyl-5-phenyl-4,5-dihydro-1H-pyrazol-3-yl)-1,2,4-oxadiazol-3-yl]-3-fluorobenzyl}amino)propyl]phosphonic acid], for which the EC50 came to 11 nM.
As to `CCc1cc(-c2noc(C3=NN(CC)C(c4ccccc4)C3)n2)ccc1CNCCC(=O)O` (centres unmarked) [Compound 11, 3-({2-ethyl-4-[5-(1-ethyl-5-phenyl-4,5-dihydro-1H-pyrazol-3-yl)-1,2,4-oxadiazol-3-yl]benzyl}amino)propanoic acid], the EC50 is 21 nM.
